The values that follow come from patent publication US20220010300A1, “METHODS OF TREATING NEURODEGENERATIVE DISORDERS AND IDENTIFYING TARGETS THEREFORE” (The Board of Trustees of the Leland Stanford Junior …, priority 2019, published 2022).

Assay [1] deals with microglia in the hippocampus. In words: LPS injections in young mice, BODIPY/Iba1 staining of the hippocampus. In kind it is in vivo, mouse. Particulars: 3-month-old mice, i.p. 1 mg LPS/kg BW once daily for four days, compared with vehicle treated controls. As for the experimental part: 3-month-old wild type mice were injected with LPS (Lipopolysaccharide from E. coli, Sigma), i.p. 1 mg LPS/kg body weight once daily for four consecutive days. Control mice were injected with body weight corresponding volumes of PBS. 24 hours after the last LPS injection mice were euthanized, brains were extracted and brain tissue was processed for immunohistochemistry staining (see Perfusion and tissue processing and Immunohistochemistry and BODIPY staining).
Mice were anesthetized using Avertin (Tribromoethanol) and transcardially perfused with 0.9% NaCl solution. Brains were extracted, fixed in 4% paraformaldehyde for 48 hours, cryoprotected in 30% sucrose and then sectioned sagitally or coronally ([…]) using a freezing microtome (Leica). […]
For quantification of BODIPY^+ microglia, of CD68^hi microglia, of BODIPY^+ lipid droplet numbers and of lipid droplet size, analyses were performed blinded on coded slides. […]
To analyze the percentage of lipid droplet-containing microglia, numbers of total TMEM119^+ or lba1^+ cells and of TMEM119+BODIPY^+ or lba1+BODIPY^+ cells were counted and the percentage of BODIPY^+ microglia was calculated. To assess the percentage of CD68^hi cells, BODIPY^−lba1^+ and BODIPY^+lba1^+ cells with clearly visible CD68 immunoreactive particles were counted and normalized to total BODIPY^−lba1^+ and BODIPY^+lba1^+ cells.

Assay [2] deals with BV-2 cells. Description: BODIPY in vitro staining of BV-2 cells (confocal counting of BODIPY+ cells). The assay is classed as cell-based, mouse. On the procedure: (§1) To induce lipid droplet formation, subconfluent BV-2 cells were treated for 18 hours with 5 μg/ml LPS (Lipopolysaccharide from E. coli, Sigma) in DMEM+5% FBS. Controls received vehicle solution (PBS) only. To inhibit lipid droplet formation, BV-2 cells were pre-treated with 1 μM Triacsin C (Cayman Chemical) or vehicle (saline) in DMEM+5% FBS. 30 min after adding Triacsin C, LPS or LPS-vehicle solution were added and cells were co-treated with Triacsin C and LPS for 18 hours.
BV-2 cells were seeded at 5×10^4 cells on poly-L-lysine coated glass coverslips in DMEM+5% FBS. Following specific treatments, cells were fixed in 4% PFA for 30 min, washed 3× in PBS and incubated in PBS with BODIPY™ 493/503 (1:1000 from 1 mg/ml stock solution in DMSO; ThermoFisher) and Hoechst 33342 (1:2000, ThermoFisher) for 10 min at RT. Sections were washed twice in PBS and mounted on microscope slides with Vectashield (H-1000, Vector Laboratories). Four randomly selected visual fields per coverslip were photographed (40× magnification) using a confocal scanning laser microscope (LSM 700, Zeiss) with LSM software (ZEN 2011). To analyze the percentage of lipid droplet-containing BV-2 cells, numbers of total Hoechst^+ cells and of Hoechst^+ cells with BODIPY^+ lipid droplets were counted and the percentage of BODIPY^+BV-2 cells was calculated.

In assay [3] the test system is BV-2 cells. Description: BODIPY fluorescence of BV-2 cells by flow cytometry. The assay is classed as cell-based, mouse. As for the experimental part:
as §1
A general note: A flow cytometer gives signals particle by particle.

In assay [4] the test system is BV-2 cells. In words: In vitro phagocytosis assay (pHrodo red Zymosan uptake). The assay is classed as cell-based, mouse. On the procedure: as §1
For in vitro phagocytosis assays, BV-2 cells were split into 96 well plates at 1000 cells per well in DMEM+5% FBS and treated with LPS, Triacsin C and vehicle solutions for 18 hours. Following specific treatments, 5 ng pHRodo Red Zymosan™ Bioparticles (Thermo Fisher Scientific P35364) in 100 μl DMEM+5% FBS were added per well. Four phase contrast and red fluorescent images per well were acquired every 2 hours for 16 hours using the Incucyte S3 live cell analysis system (Essen Bioscience). For each time point, phagocytosis was calculated by normalizing red fluorescent area to phase confluence.

In assay [5] the test system is BV-2 cells. Description: ROS assay (CellROX fluorescence, microscopy and flow cytometry). The assay is classed as cell-based, mouse. As for the experimental part: To measure ROS in BV-2 cells, cells were split into 24 well plates at 5×10^4 cells per well in DMEM+5% FBS and treated with LPS, Triacsin C and vehicle solutions for 18 hours. Next, cells were incubated in DMEM+5% FBS with CellROX™ Orange (1:500, Invitrogen) for 30 min at 37° C., washed twice in PBS, and CellROX™ Orange Intensity was examined by fluorescence microscopy (Keyence Corp., Osaka, Japan). Following microscopic analysis, cells were detached using TripLE, transferred to FACS tubes and CellROX™ Orange intensity was analyzed on BD AccuriC6 flow cytometer.

Assay [6] relates to hippocampal LD-low and LD-high microglia. In words: Cytokine assay on acutely isolated primary microglia (multiplex array). In kind it is cell-based, mouse. Particulars: aged mice, 100 ng/ml LPS for 8 hours; IL-10, CCL3, CCL4, IL-6, CCL5, TNF-α, IL-1β, IL-1α, CXCL1, CXCL10. As for the experimental part:
Primary microglia from hippocampi of 3-month (young) and 20-month-old (aged) wild type mice were isolated as described above (see Microglia Isolation, hippocampi from 3 mice were pooled per age group). CD11b^+CD45^lo primary microglia from young mice, and CD11b^+CD45^lo primary microglia sorted for BODIPY^lo and BODIPY^hi cells from aged mice were sorted into 5% FBS-containing microglial culture medium (DMEM/F12, 1% Pen/Strep; 2 mM glutamine; 5 ug/mL N-acetyl cysteine; 5 ug/mL insulin; 100 ug/mL apo-transferrin; 100 ng/mL sodium selenite; 2 ng/mL human TGF-2; 100 ng/mL murine IL-34; 1.5 ug/mL ovine wool cholesterol; 10 ug/mL heparin sulfate)s. Cells were seeded into 96 well plates at 5000 cells per well in 100 μl microglia culture medium with 5% FBS and incubated for 30 min in the incubator (37° C., 5% CO2). Next, cells were treated with 100 ng/ml LPS or PBS for 8 hours, and supernatant was collected and secreted signaling proteins were measured in culture supernatants using the ‘Mouse Cytokine/Chemokine Array 31-Plex’ from Eve Technologies (Canada).

For assay [7], the system named is BV-2 cells. In words: Iodo-BODIPY irradiation assay with Calcein AM live cell staining. The assay is classed as cell-based, mouse. Particulars: LPS 5 μg/ml for 18 hours, 3.8 μM iodo-BODIPY for 30 min, green LED irradiation for 3 hours. On the procedure: BV-2 cells were treated for 18 hours with 5 μg/ml LPS in DMEM with 5% FBS to induce lipid droplet formation. Controls received vehicle solution (PBS) only. Cells were washed twice in PBS and incubated in 3.8 μM iodo-BODIPY (see FIG. 8, Panel A; iodo-BODIPY was kindly provided by Prof. Carolyn Bertozzi, Chemistry department, Stanford University) in PBS for 30 min in the incubator (5% CO2, 37° C.). Cells were washed twice in PBS and then irradiated under visible light (green LED; 9 W, 150 mA, 2000 lux) for 3 hours at RT. Non-irradiated cells were kept at RT for 3 hours without irradiation.
To assess cell viability after photoirradiation, irradiated and non-irradiated BV-2 cells were stained with 1 μM Calcein AM (Invitrogen) in PBS for 15 min at 37° C. Cells were then examined by fluorescence microscopy (Keyence Corp., Osaka, Japan) and the percentage of green, Calcein^+BV-2 cells (live cells) of total methyl-di-iodo BODIPY^+ cells (red, lipid droplet containing cells) was calculated.

[8] abbreviates: 1 μM Triacsin C co-treated with LPS (5 μg/ml) for 18 hours.

On to Lipopolysaccharide from E. coli [LPS], for which the “increase in lipid droplet containing microglia (BODIPY+Iba1+) in the hippocampus” value in assay [1] is given as “twofold increase”. The “increase of lipid droplet containing BODIPY+ BV-2 cells” value in the assay with BV-2 cells [2] (5 μg/ml LPS for 18 hours, compared with control BV-2 cells) worked out at 5 fold. In addition, the “BODIPY+ fluorescence by flow cytometry” value in the assay with BV-2 cells [3] (5 μg/ml LPS for 18 hours) was “significantly increased”. In addition, the “phagocytosis (pHrodo red Zymosan uptake) in BV-2 cells” value in the assay on BV-2 cells [4] (5 μg/ml LPS for 18 hours) is recorded as “significantly increased phagocytosis”. Also, the “ROS generation (CellROX fluorescence) in BV-2 cells” value in the assay with BV-2 cells [5] (5 μg/ml LPS for 18 hours) was “induced elevated ROS generation”. In addition, the “cytokine release of LD-high microglia compared to LD-low microglia upon LPS treatment” value in assay [6] is “strongly exaggerated release of multiple cytokines”.

Consider iodo-BODIPY [iBP], for which, in the assay with BV-2 cells [7], the “cell killing after photoirradiation of iBP+ BV-2 cells (Calcein live cell imaging)” value is “selectively killed lipid-droplet rich cells”.

`CCC/C=C/C/C=C/C=C/C=N/NN=O` [Triacsin C]: the “effect on LPS-induced increase in BODIPY+ cells” value in the assay with BV-2 cells [2] (setting [8]) is “abolished the LPS-induced increase”. Also, the “effect on BODIPY+ signal in LPS-stimulated BV-2 cells by flow cytometry” value in the assay with BV-2 cells [3] (setting [8]) is “inhibited an increase”. In addition, the “pHrodo red Zymosan phagocytosis in LPS-treated cells” value with BV-2 cells [4] (setting [8]) was “increased Zymosan phagocytosis”. In addition, in the assay with BV-2 cells [5] (setting [8]), the “ROS levels (CellROX fluorescence) in LPS-treated cells” value is reported as “significantly reduce ROS levels”.
